Data taken from patent publication US20240001012A1, “SOLUTIONS FOR […] OF A DRUG AD[…] […] AND DOSING ALGORITHM THEREFOR” (DREXEL UNIVERSITY, priority 2017, published 2024).

Assays:
[1] = Serum vancomycin plateau level in patients receiving continuous infusion vancomycin mixed in the CRRT solution; format: in vivo, human
Description: According to embodiments disclosed herein, drug concentrations in the solution(s) are adjusted in vitro based on an initial serum plateau level, and subsequent levels are thereafter obtained based on these changes. […] See step 70.
In this study, CRRT was performed using a Prismaflex System machine (Gambro, Lakewood, CO). The mode of dialysis, continuous venovenous hemofiltration or hemodiafiltration was dictated by an attending nephrologist prescribing the dialysis. The
(§1) Prismaflex machine was initially primed with two 1-L bags of normal saline and 5,000 units of heparin. The machine was then primed with normal saline, 5% albumin, or a blood exchange (blood is transfused to the patient as the prime is wasted) depending on the percent extracorporeal volume of the patient with a dialysis solution utilizing HF1000, AN69 dialysis filters. Commercially available dialysate and replacement solutions were used for all CRRT patients. The CRRT circuit and solutions were inspected and observed for adverse events, such as specifically for precipitation and clotting. The CRRT solution(s) and circuit were visually inspected after addition of the CRRT circuit prior to the final connection to the patient.
The median eGFR on ICU admission was 39.9 mL/min/1.73 m 2 (25th to 75th IQR, 25.8-53.4 mL/min/1.73 m 2) compared with a median eGFR of 26.7 mL/min/1.73 m 2 (25th to 75th IQR, 18.8-42.7 mL/min/1.73 m 2) with the initiation of CRRT.

[2] = Stability of vancomycin with components of the CRRT solution; format: physicochemical; settings: in CRRT solution
From the text: The CRRT or like solution may be prepared at the time it is needed following current standard operating procedures for sterile product compounding or as discussed below in greater detail. The amount of vancomycin, for instance, to be added to the solution is described below in greater detail. Accordingly, this mixed solution is provided for being infused for the duration it is prescribed for CRRT. […] Other drugs may be stable for less or more time.

[3] = Inspection of CRRT solution(s) and circuit for precipitation and clotting after mixing vancomycin; settings: on mixing the vancomycin in the CRRT solution
From the text: Upon initiation of CRRT, the CRRT circuit may be inspected and evaluated on an hourly basis according to current standards of care. A part of the hourly standard of care inspection may involve inspection of the CRRT solution for precipitation and crystallization. This assessment should continue for the period of time the patient is receiving CRRT and vancomycin or other antibiotics is mixed in the CRRT solution.
as §1

Streptococcus pneumoniae = experiment: Follow-up cultures in patient 4 on vancomycin via CRRT; format: in vivo, human; settings: vancomycin continued 2 days
From the text: (§2) Only two patients, patients 4 and 9, had cultures that were positive for a gram-positive organism. […] Subsequent cultures obtained from the blood and the respiratory system were negative. The isolate of Streptococcus pneumoniae was penicillin sensitive, and the patient was changed to ampicillin for the remainder of the treatment course.

[4] = system: methicillin-sensitive Staphylococcus aureus; experiment: Follow-up cultures in patient 9 on vancomycin via CRRT; format: in vivo, human; settings: day 6 of vancomycin therapy, blood culture also negative
From the text: as §2

[5] = escalation in CRRT intensity from hemofiltration to hemodiafiltration; Joy et al. 1998; cited from earlier work

CN[C@H](CC(C)C)C(=O)N[C@H]1C(=O)N[C@@H](CC(N)=O)C(=O)N[C@H]2C(=O)N[C@H]3C(=O)N[C@H](C(=O)N[C@H](C(=O)O)c4cc(O)cc(O)c4-c4cc3ccc4O)[C@H](O)c3ccc(c(Cl)c3)Oc3cc2cc(c3O[C@@H]2O[C@H](CO)[C@@H](O)[C@H](O)[C@H]2O[C@H]2C[C@](C)(N)[C@H](O)[C@H](C)O2)Oc2ccc(cc2Cl)[C@H]1O [Vancomycin, vancomycin]
median (25th to 75th IQR) vancomycin serum plateau concentration ([1]; 11 patients, median solution concentration 25 mg/L): 21.8 (20.9-25)
Vancomycin Level, IQR, 25 ([1]; all levels of 11 patients): 20.9 µg/mL
Vancomycin Level, IQR, 75 ([1]; all levels of 11 patients): 25 µg/mL
Vancomycin Level, Min ([1]; all levels of 11 patients): 12.9 µg/mL
Vancomycin Level, Mean ([1]; all levels of 11 patients, mean CRRT solution concentration 26.5 μg/mL): 22.3 µg/mL
Vancomycin Level, Median ([1]; all levels of 11 patients, median CRRT solution concentration 25 μg/mL): 21.8 µg/mL
attainment of therapeutic vancomycin serum plateau levels ([1]; all patients, regardless of CRRT modality, dose and flow rate): all patients achieved therapeutic vancomycin serum plateau levels
concentration at 8 h ([1]; human, serum, other: continuous infusion mixed in the CRRT solution, the one patient below 15 mg/L at 8 hours): 12900 ng/mL
therapeutic serum level after adjustment of the CRRT solution concentration ([1]; same patient, within 16 hours of starting CRRT): 23.5 mg/L
patients achieving a therapeutic serum vancomycin level within 8 hours ([1]; ten of eleven patients, within 8 hours of starting mixing vancomycin into the CRRT solution, target 15-30 mg/L): 91%
stable with components of the CRRT solution [2]: at least 96 hours
adverse events regarding precipitation of vancomycin with CRRT solution(s) or circuit [3]: no adverse events were observed
subsequent cultures from blood and respiratory system (Streptococcus pneumoniae): negative
repeat respiratory culture [4]: negative
increase in vancomycin clearance [5]: greater than or equal to 30%
